Results as given in patent US4501748A, “1,4-Dihydropyridine derivatives” (Kyowa Hakko Kogyo Co., Ltd., priority 1983, dated 1985).
Structures can show the parent of a compound that is named as a salt.

Experiments:
[1] = test system: Spontaneously hypertensive rat (SHR); experiment: Hypotensive effect: intravenous administration to SHR (no anesthesia); format: in vivo, Okamoto strain, male); conditions: 5 animals
Procedure: (1.) Intravenous Administration to SHR (no anesthesia)
Spontaneously hypertensive rat (SHR) (Okamoto strain, aging 20 to 30 weeks, male) were anesthetized with sodium thiopental (50 mg/kg, ip). A cannula for measuring blood pressure was inserted into the descending aorta from the right femoral artery and a cannula for intravenous administration was inserted into the left carotid vein, and these cannulas were fixed on the […], respectively. Change in blood pressure by intravenous administration of each of drugs were measured next day without any anesthesia. As the drugs, a solution of each of the drugs in polyethylene glycol 400 was intravenously administered at the dose of 0.1 ml/100 g body weight of the rat.

[2] = test system: Spontaneously hypertensive rat (SHR); experiment: Hypotensive effect: oral administration to SHR (no anesthesia), plethysmographic tail method; format: in vivo, Okamoto Strain, male)
Procedure: (2) Oral Administration to SHR (no anesthesia)
Change in systolic blood pressure when drugs were orally administered to spontaneously hypertensive rat (SHR) (Okamoto Strain, aging 15 to 26 weeks, male) was measured by the plethysmographic tail method (Ueda Seisakusho, USM-105R).
Drugs were compulsorily orally administered at the dose of 0.5 ml/100 g body weight of the rat in the form of a suspension in 0.3% carboxymethyl cellulose, using a gastric tube.

mice = experiment: Acute toxicity, oral administration to mice (survival rate 72 hours after administration); format: in vivo, mice (ddY type; conditions: mice ddY male, hydrochloride, 4320 min
Procedure: (§1) Drugs were compulsorily orally administered to mice (ddY type, body weight of 20 to 24 g, male) and the survival rate 72 hours after the administration was studied. A suspension of each of the drugs in water having added a small quantity of Tween 80 thereto was orally given at the dose of 0.1 ml/10 g mouse body weight, using a gastric tube.

[3] = Hypotensive effect (general statement); format: in vivo; conditions: among the (±)-α-form
[4] = LD50 in the oral administration in male rats; conditions: rat, in vivo
[5] = Acute toxicity, oral administration to mice (survival rate 72 hours after administration); format: in vivo, mice (ddY type; conditions: mouse, in vivo, mice ddY male
Procedure: as §1

SMILES | Maximum Decrease in Mean Blood Pressure ([1]; 10 μg/kg i.v., hydrochloride) | Maximum Decrease in Mean Blood Pressure ([1]; 100 μg/kg i.v.) | Maximum Decrease in Systolic Blood Pressure ([2]; 3 mg/kg p.o., 4 animals) | Maximum Decrease in Systolic Blood Pressure ([2]; 10 mg/kg p.o., 4 animals) | Acute Toxicity LD50 (mice) | Maximum Decrease in Mean Blood Pressure ([1]; 1 μg/kg i.v.) | Maximum Decrease in Systolic Blood Pressure ([2]; 1 mg/kg p.o., 8 animals) | hypotensive effect [3] | LD50 [4] | Maximum Decrease in Mean Blood Pressure ([1]; 10 μg/kg i.v.) | LD50 at 72 h [5]
COC(=O)C1=C(C)NC(C)=C(C(=O)OC2CCCN(Cc3ccccc3)C2)C1c1cccc([N+](=O)[O-])c1 (single isomer, unassigned) [(-)-α-form, (-)-α-2,6-dimethyl-4-(3-nitrophenyl)-1,4-dihydropyridine-3,5-dicarboxylic acid-3-(1-benzyl-3-piperidyl)ester-5-methyl ester hydrochloride] | 23.4 ± 7.9 mmHg | 27.3 ± 6.1 mmHg | 22.5 ± 9.6 mmHg | 30.0 ± 5.3 mmHg | 918 mg/kg |  |  |  |  |  | 
COC(=O)C1=C(C)NC(C)=C(C(=O)OC2CCCN(Cc3ccccc3)C2)C1c1cccc([N+](=O)[O-])c1 (single isomer, unassigned) [(+)-α-form, (+)-α-2,6-dimethyl-4-(3-nitrophenyl)-1,4-dihydropyridine-3,5-dicarboxylic acid-3-(1-benzyl-3-piperidyl)ester-5-methyl ester hydrochloride] | 67.4 ± 4.7 mmHg |  |  |  | 95 mg/kg | 42.2 ± 11.5 mmHg | 56.3 ± 13.0 mmHg | excellent hypotensive effect | 95 mg/kg |  | 
COC(=O)C1=C(C)NC(C)=C(C(=O)OC2CCCN(Cc3ccccc3)C2)C1c1cccc([N+](=O)[O-])c1 (racemic) [(±)-α-form, (±)-2,6-dimethyl-4-(3-nitrophenyl)-1,4-dihydropyridine-3,5-dicarboxylicacid-3-(1-benzyl-3-piperidyl)ester-5-methyl ester] |  |  |  |  |  | 23.1 ± 6.4 mmHg | 35.6 ± 6.3 mmHg |  |  | 45.6 ± 6.5 mmHg | 218 mg/kg
